Relative viability data for 7 cell lines are collected here from the supplement of paper PMC10307832.

What all share (experiment): relative viability (nuclei count vs DMSO), 5 days (fraction); higher = more cells survive
Compound in test [1]: COc1cc(Nc2c(C#N)cnc3cc(OCCCN4CCN(C)CC4)c(OC)cc23)c(Cl)cc1Cl [Bosutinib] + COc1cc2c(Oc3ccc(NC(=O)C4(C(=O)Nc5ccc(F)cc5)CC4)cc3F)ccnc2cc1OCCCN1CCOCC1 [Foretinib] (partner 0.25 µM)
Put shortly: (§1)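 Relative viability divides the nuclei count in treated wells by that in vehicle wells. Lung cancer cell lines were seeded in 1536-well plates, dosed by pin tool the next day, and fixed and stained after 5 days in one step with final 0.05% Triton X-100, 1% formaldehyde and 1 ug/ml Hoechst. Dosing was a single drug or a fixed anchor-drug dose plus five library-drug doses (not always all listed) in √10 steps, and values are medians of duplicate plates imaged at 4×.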

Compound in test [2]: COc1cc(Nc2c(C#N)cnc3cc(OCCCN4CCN(C)CC4)c(OC)cc23)c(Cl)cc1Cl [Bosutinib] + CS(=O)(=O)CCNCc1ccc(-c2ccc3ncnc(Nc4ccc(OCc5cccc(F)c5)c(Cl)c4)c3c2)o1 [Lapatinib] (partner 2 µM)
Put shortly: as §1

Compound in test [3]: COc1cc(Nc2c(C#N)cnc3cc(OCCCN4CCN(C)CC4)c(OC)cc23)c(Cl)cc1Cl [Bosutinib] + Cc1nc(Nc2ncc(C(=O)Nc3c(C)cccc3Cl)s2)cc(N2CCN(CCO)CC2)n1 [Dasatinib] (partner 0.075 µM)
In a few lines: as §1

Compound in test [4]: COc1cc(Nc2c(C#N)cnc3cc(OCCCN4CCN(C)CC4)c(OC)cc23)c(Cl)cc1Cl [Bosutinib] + CC1(C)CCC(c2ccc(Cl)cc2)=C(CN2CCN(c3ccc(C(=O)NS(=O)(=O)c4ccc(N[C@H](CCN5CCOCC5)CSc5ccccc5)c(S(=O)(=O)C(F)(F)F)c4)cc3)CC2)C1 [Navitoclax] (partner 0.5 µM)
Put shortly:
as §1

Compound in test [5]: COc1cc(Nc2c(C#N)cnc3cc(OCCCN4CCN(C)CC4)c(OC)cc23)c(Cl)cc1Cl [Bosutinib] + CC(=O)Nc1cccc(-n2c(=O)n(C3CC3)c(=O)c3c(Nc4ccc(I)cc4F)n(C)c(=O)c(C)c32)c1 [Trametinib] (partner 0.02 µM)
In a few lines:
as §1

On to NCI-H1734, for which the relative viability in test [1] (first compound 0.01 µM) is 0.888; in test [1] (first compound 0.03162 µM), 0.837; in test [1] (first compound 0.1 µM), 0.849; in test [1] (first compound 1 µM) it was 0.719; in test [2] (first compound 0.01 µM), 1.17; in test [2] (first compound 0.03162 µM), 1.07. Further, the relative viability is 0.977 in test [2] (first compound 0.1 µM); 1.06 in test [2] (first compound 1 µM); 0.523 in test [3] (first compound 0.01 µM); 0.508 in test [3] (first compound 0.03162 µM); 0.512 in test [3] (first compound 0.1 µM); 0.46 in test [3] (first compound 1 µM). Besides, the relative viability is 0.808 in test [4] (first compound 0.01 µM); 0.827 in test [4] (first compound 0.03162 µM); 0.853 in test [4] (first compound 0.1 µM); 0.737 in test [4] (first compound 1 µM); 0.693 in test [5] (first compound 0.01 µM); 0.711 in test [5] (first compound 0.03162 µM). Further, the relative viability in test [5] (first compound 0.1 µM) came out at 0.726; in test [5] (first compound 1 µM), 0.591.

In the case of NCI-H1755, the relative viability was found to be 0.974 in test [1] (first compound 0.01 µM); 0.988 in test [1] (first compound 0.03162 µM); 0.983 in test [1] (first compound 0.1 µM); 0.801 in test [1] (first compound 1 µM); 1.03 in test [2] (first compound 0.01 µM); 1.11 in test [2] (first compound 0.03162 µM). For the same cell line, the relative viability in test [2] (first compound 0.1 µM) was 1.06; in test [2] (first compound 1 µM) it was 0.915; in test [3] (first compound 0.01 µM) it was 0.427; in test [3] (first compound 0.03162 µM), 0.476; in test [3] (first compound 0.1 µM), 0.438; in test [3] (first compound 1 µM), 0.433. Also, the relative viability in test [4] (first compound 0.01 µM) was 0.971; in test [4] (first compound 0.03162 µM) it was 1.02; in test [4] (first compound 0.1 µM), 1.04; in test [4] (first compound 1 µM), 0.925; in test [5] (first compound 0.01 µM), 0.706; in test [5] (first compound 0.03162 µM), 0.798. The relative viability in test [5] (first compound 0.1 µM) was 0.856; in test [5] (first compound 1 µM), 0.76.

In the case of NCI-H1793, the relative viability in test [1] (first compound 0.01 µM) is 0.61; in test [1] (first compound 0.03162 µM), 0.664; in test [1] (first compound 0.1 µM) it was 0.58; in test [1] (first compound 1 µM) it was 0.473; in test [2] (first compound 0.01 µM) it was 0.864; in test [2] (first compound 0.03162 µM), 0.839. Besides, the relative viability in test [2] (first compound 0.1 µM) stood at 0.438; in test [2] (first compound 1 µM) it was 0.497; in test [3] (first compound 0.01 µM), 0.465; in test [3] (first compound 0.03162 µM), 0.392; in test [3] (first compound 0.1 µM) it was 0.391; in test [3] (first compound 1 µM), 0.347. Also, the relative viability in test [4] (first compound 0.01 µM) turned out to be 0.466; in test [4] (first compound 0.03162 µM), 0.479; in test [4] (first compound 0.1 µM), 0.456; in test [4] (first compound 1 µM), 0.263; in test [5] (first compound 0.01 µM) it was 0.383; in test [5] (first compound 0.03162 µM), 0.394. For the same cell line, the relative viability in test [5] (first compound 0.1 µM) turned out to be 0.454; in test [5] (first compound 1 µM), 0.298.

Consider NCI-H1915, for which the relative viability in test [1] (first compound 0.01 µM) came out at 1.07; in test [1] (first compound 0.03162 µM), 1.1; in test [1] (first compound 0.1 µM), 1.11; in test [1] (first compound 1 µM), 1.11; in test [2] (first compound 0.01 µM), 0.919; in test [2] (first compound 0.03162 µM), 0.965. The relative viability in test [2] (first compound 0.1 µM) is 0.991; in test [2] (first compound 1 µM), 1.06; in test [3] (first compound 0.01 µM) it was 0.323; in test [3] (first compound 0.03162 µM) it was 0.323; in test [3] (first compound 0.1 µM), 0.33; in test [3] (first compound 1 µM) it was 0.297. Moreover, the relative viability is 0.802 in test [4] (first compound 0.01 µM); 0.824 in test [4] (first compound 0.03162 µM); 0.823 in test [4] (first compound 0.1 µM); 0.81 in test [4] (first compound 1 µM); 0.306 in test [5] (first compound 0.01 µM); 0.291 in test [5] (first compound 0.03162 µM). In addition, the relative viability came to 0.295 in test [5] (first compound 0.1 µM) and 0.253 in test [5] (first compound 1 µM).

With NCI-H1944, the relative viability in test [1] (first compound 0.01 µM) turned out to be 0.997; in test [1] (first compound 0.03162 µM) it was 0.814; in test [1] (first compound 0.1 µM) it was 0.889; in test [1] (first compound 1 µM), 0.574; in test [2] (first compound 0.01 µM) it was 0.834; in test [2] (first compound 0.03162 µM) it was 0.803. The relative viability in test [2] (first compound 0.1 µM) worked out at 0.865; in test [2] (first compound 1 µM), 0.736; in test [3] (first compound 0.01 µM) it was 0.216; in test [3] (first compound 0.03162 µM) it was 0.2; in test [3] (first compound 0.1 µM), 0.209; in test [3] (first compound 1 µM), 0.208. In addition, the relative viability in test [4] (first compound 0.01 µM) is 1.06; in test [4] (first compound 0.03162 µM), 1.08; in test [4] (first compound 0.1 µM), 1.04; in test [4] (first compound 1 µM) it was 0.956; in test [5] (first compound 0.01 µM) it was 0.415; in test [5] (first compound 0.03162 µM) it was 0.45. The values for the relative viability in test [5] (first compound 0.1 µM) and in test [5] (first compound 1 µM) were 0.394 and 0.327, respectively.

As for NCI-H1975, the relative viability in test [1] (first compound 0.01 µM) stood at 0.981; in test [1] (first compound 0.03162 µM) it was 0.975; in test [1] (first compound 0.1 µM) it was 0.977; in test [1] (first compound 1 µM), 0.841; in test [2] (first compound 0.01 µM), 0.907; in test [2] (first compound 0.03162 µM) it was 0.842. Moreover, the relative viability in test [2] (first compound 0.1 µM) amounted to 0.839; in test [2] (first compound 1 µM), 0.712; in test [3] (first compound 0.01 µM), 0.343; in test [3] (first compound 0.03162 µM) it was 0.395; in test [3] (first compound 0.1 µM), 0.364; in test [3] (first compound 1 µM), 0.374. In addition, the relative viability in test [4] (first compound 0.01 µM) was determined as 1; in test [4] (first compound 0.03162 µM), 1.06; in test [4] (first compound 0.1 µM), 1.1; in test [4] (first compound 1 µM) it was 0.991; in test [5] (first compound 0.01 µM), 0.29; in test [5] (first compound 0.03162 µM), 0.329. The relative viability in test [5] (first compound 0.1 µM) was 0.42; in test [5] (first compound 1 µM) it was 0.322.

As to NCI-H1993, the relative viability in test [1] (first compound 0.01 µM) was found to be 0.819; in test [1] (first compound 0.03162 µM), 0.672; in test [1] (first compound 0.1 µM) it was 0.778; in test [1] (first compound 1 µM), 0.564; in test [2] (first compound 0.01 µM), 0.814; in test [2] (first compound 0.03162 µM), 0.85. Also, the relative viability in test [2] (first compound 0.1 µM) stood at 0.947; in test [2] (first compound 1 µM), 0.835; in test [3] (first compound 0.01 µM) it was 0.492; in test [3] (first compound 0.03162 µM) it was 0.63; in test [3] (first compound 0.1 µM) it was 0.589; in test [3] (first compound 1 µM), 0.622. The relative viability in test [4] (first compound 0.01 µM) amounted to 0.871; in test [4] (first compound 0.03162 µM), 0.968; in test [4] (first compound 0.1 µM), 0.957; in test [4] (first compound 1 µM) it was 0.742; in test [5] (first compound 0.01 µM), 0.461; in test [5] (first compound 0.03162 µM), 0.513. Besides, the figures for the relative viability in test [5] (first compound 0.1 µM) and in test [5] (first compound 1 µM) were 0.579 and 0.538, respectively.
